Laboratory results taken from PMC4867592, “Targeting multiple response regulators of Mycobacterium tuberculosis augments the host immune response to infection” (Scientific Reports, 2016).
“And” between values parts separate entries of the source, which are not always exact repeats. Equal values may be shown once. Read-outs that look alike come from different tables or passages of the source.

Assays:
[1] = target: T1, DosR (Mycobacterium tuberculosis, UniProt P9WMF9); assay: EMSA: binding of phosphorylated DosR (DevR) to hspX promoter-derived DNA; parameters: species or system Mtb
T1 construct: His6; made in house; host or cells: E. coli C43(DE3)

[2] = test system: Mtb-infected macrophages; assay: Autophagy assays in Mtb-infected macrophages (LC3-II immunoblot, LC3 puncta); assay type: cell-based; settings: for LC3 puncta formation in infected macrophages: BMDMs, hMDMs, RAW264.7, C2 20 μM, isoniazid 0.5 µg/ml
Protocol: For autophagy analysis, infected macrophages were lysed and immunoblotted with LC3 antibody. For the visualisation of LC3 puncta, infected macrophages were incubated with LC3 antibody followed by immunostaining with Alexa 488-conjugated secondary antibody. Images were acquired in a Leica confocal microscope. At least 100 cells were counted to enumerate the number of punctated cells. Detailed methods have been provided in the supplemental section.
(§1) RAW 264.7 cells or hMDMs or BMDMs were seeded at ~3x10^5 cells per well on 18 mm cover slips.
(§2) After infection and treatment with C2 or isoniazid (INH) , the cells were fixed with 4% paraformaldehyde for 10 min at 25°C followed by permeabilisation with 0.01% Triton X-100 in PBS for 10 min at 25°C. The cells were then treated with 10% BSA in PBS for 90 min at 25°C followed by treatment with anti-LC3 antibody at 4°C overnight. Cells were then washed with PBS and treated with Alexa488 conjugated secondary antibody for 90 min at 25°C. Cells were visualized in a Leica confocal […]
(§3) Bacterial CFU determinations
RAW264.7 cells or hMDMs or BMDMs were plated in 48 well plates. Cells were infected with Mtb and treated with C2 or C6 for the desired periods of time. Infected cells were lysed in distilled water with 0.06% SDS. Serial dilutions of homogenates were plated on 7H11 agar plates supplemented with 10% OADC and incubated at 37 °C for 3–4 weeks. CFUs were calculated in triplicate using standard procedures. For Alamar Blue assays, bacteria from the cell lysates were washed and transferred to a 96 well plate in MB 7H9. Alamar Blue was added and readings were taken upon development of […]
For NO (nitrite) measurements, RAW264.7 or MDMs or BMDMs were infected with Mtb H37Rv. Control and infected supernatants obtained in the absence or presence of C2, were used for the measurement of nitrite using Griess reagent (Invitrogen), according to the manufacturer’s instructions. Supernatant nitrite concentrations were measured by reading absorbance at 540 nm and calculated using a standard curve. […]

[3] = target: T2, RegX3 (Mycobacterium tuberculosis, UniProt P9WGL9); assay: EMSA: binding of phosphorylated RegX3 to ppk1 promoter DNA; parameters: species or system Mtb
T2 construct: made in house; host or cells: E. coli
T2 sequence (P9WGL9 1-227): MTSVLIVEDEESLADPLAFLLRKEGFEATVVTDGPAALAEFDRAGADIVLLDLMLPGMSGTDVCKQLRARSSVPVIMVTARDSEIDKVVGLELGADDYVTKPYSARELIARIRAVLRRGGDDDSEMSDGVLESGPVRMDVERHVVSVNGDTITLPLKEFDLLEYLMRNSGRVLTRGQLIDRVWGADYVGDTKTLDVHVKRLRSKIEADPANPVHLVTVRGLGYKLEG

[4] = test system: Mtb; assay: Growth curve of Mtb (absorbance at 600 nm); assay type: cell-based, Mycobacterium tuberculosis H37Rv
[5] = test system: Mtb in hMDM; assay: Mtb CFU in infected human monocyte derived macrophages; assay type: cell-based, Mycobacterium tuberculosis H37Rv; settings: MOI 5, 20 μM, after 6 days
[6] = test system: Mtb; assay: Alamar Blue assay of Mtb growth in vitro; assay type: cell-based, Mycobacterium tuberculosis H37Rv
[7] = test system: RAW264.7; assay: Survival of RAW264.7 measured by Alamar Blue
[8] = test system: Mtb; assay type: cell-based, Mycobacterium tuberculosis H37Rv
[9] = test system: NO release from macrophages; assay: NO (nitrite) release from macrophages, Griess reagent; assay type: cell-based
Protocol: For NO (nitrite) measurements, RAW264.7 was infected with Mtb in DMEM for 24–48 h. Nitrite was measured using Griess reagent (Invitrogen), according to the manufacturer’s instructions. Absorbance was read at 540 nm in an ELISA reader and the concentrations of nitrite were calculated against a standard curve.
as §1, §2, §3
RAW264.7 cells or hMDMs or BMDMs were plated in 48 well plates. Cells were infected with Mtb and treated with C2 or C6 for the desired periods of time. […] CFUs were calculated in triplicate using standard procedures. […] Alamar Blue was added and readings were taken upon development of […]
For NO (nitrite) measurements, RAW264.7 or MDMs or BMDMs were infected with Mtb H37Rv. […] Supernatant nitrite concentrations were measured by reading absorbance at 540 nm and calculated using a standard curve. […]

[10] = test system: Mtb in BMDM; assay: Mtb CFU in infected murine bone marrow derived macrophages; assay type: cell-based, Mycobacterium tuberculosis H37Rv; settings: MOI 5, 20 μM, after 6 days
[11] = target: T3, MtrA (Mycobacterium tuberculosis, UniProt P9WGM7); assay: EMSA: binding of phosphorylated MtrA to fbpB promoter DNA; parameters: species or system Mtb
T3 construct: Full length MtrA/Rv3246c excluding the stop codon; His (C); made in house; host or cells: E. coli C41(DE3)
T3 sequence (P9WGM7 1-228): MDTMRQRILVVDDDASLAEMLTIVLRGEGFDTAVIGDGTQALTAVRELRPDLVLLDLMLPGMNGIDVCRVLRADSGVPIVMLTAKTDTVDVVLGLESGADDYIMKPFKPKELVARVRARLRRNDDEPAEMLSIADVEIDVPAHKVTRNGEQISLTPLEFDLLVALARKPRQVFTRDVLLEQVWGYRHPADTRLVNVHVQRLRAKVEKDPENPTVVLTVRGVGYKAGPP

[12] = target: T4, MprA (Mycobacterium tuberculosis, UniProt P9WGM9); assay: EMSA: binding of phosphorylated MprA to mprA promoter DNA; parameters: species or system Mtb
T4 construct: His (N); made in house; host or cells: E. coli BL21(DE3)
T4 sequence (P9WGM9 1-230): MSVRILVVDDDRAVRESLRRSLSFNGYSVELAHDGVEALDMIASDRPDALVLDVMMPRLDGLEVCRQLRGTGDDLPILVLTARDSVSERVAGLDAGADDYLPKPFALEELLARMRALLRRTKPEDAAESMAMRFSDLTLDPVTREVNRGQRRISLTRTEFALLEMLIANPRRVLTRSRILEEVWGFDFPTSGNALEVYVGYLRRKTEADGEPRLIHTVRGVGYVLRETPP

[13] = test system: Mtb Erdman; assay type: cell-based, Mycobacterium tuberculosis Erdman; settings: immunoblot
[14] = test system: Mtb; assay: qRT-PCR / semi-quantitative RT-PCR of Mtb gene expression; assay type: cell-based, Mycobacterium tuberculosis H37Rv

T1 sequence (P9WMF9 whole entry): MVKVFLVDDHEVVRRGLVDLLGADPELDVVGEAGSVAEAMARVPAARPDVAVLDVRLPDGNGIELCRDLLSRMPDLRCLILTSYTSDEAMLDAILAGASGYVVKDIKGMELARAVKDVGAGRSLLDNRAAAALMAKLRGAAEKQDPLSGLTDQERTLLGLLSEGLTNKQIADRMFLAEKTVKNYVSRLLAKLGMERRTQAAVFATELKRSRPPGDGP

## 2-iminothiazolidine-4-one [Compound 2]
[1]
  Inhibition of DosR binding to hspX promoter-derived DNA fragment: did not inhibit binding of DosR
[2]
  LC3 puncta formation in infected macrophages: enhanced
[2]; Mtb infected RAW 264.7, immunoblot
  Conversion of LC3-I to LC3-II: enhanced
[3]
  Inhibition of binding ability of RegX3: inhibited the binding ability of RegX3
[3]; densitometry, read-out: IC50, inhibition of RegX3 binding to ppk1 promoter
  IC50: 18 µM
[4]
  Growth curve of Mtb: levelled off earlier
[5]
  Decrease in CFU of Mtb in MDMs: ~ 8 fold
[6]
  In vitro IC50 against Mtb: 6 µg/mL
  In vitro MIC against Mtb: 17 μg/ml and 25 μM
[6]; listed as C2
  In vitro IC50 against Mtb: ~ 6 μg/ml
[6]; read-out: In vitro IC50 against Mtb
  IC50: 9 µM
[7]
  Viability of RAW264.7: did not affect the viability
[8]
  Retention of pBP10 by Mtb: higher levels of retention of pBP10
[9]; Mtb-infected BMDMs, hMDMs, RAW264.7, 20 μM
  NO release from infected macrophages: significantly higher
[9]; compound alone, data not shown
  NO release from uninfected macrophages: did not affect NO release
[10]
  Decrease in CFU of Mtb in BMDMs: ~ 8 fold
[11]
  Inhibition of DNA binding activity of MtrA: could inhibit DNA binding activity of MtrA
[11]; densitometry, read-out: IC50, inhibition of MtrA binding to fbpB promoter
  IC50: 21 µM
[12]
  Inhibition of binding ability of MprA: inhibited
[12]; densitometry, read-out: IC50, inhibition of MprA binding to mprA promoter
  IC50: 4 µM
[13]
  ESAT-6 in the culture filtrate: reduced amounts of ESAT-6
[14]; 20 µM
  Expression of activated targets sigB, sigE, Rv0081, ftsI, dnaN, pstS3: repressed
  Expression of repressible targets rpfB, gltA1, cydA: augmented
  esxA expression: lowered
[14]; 20 µM, 48 hours of treatment
  Expression of espA and espR: reduced
[14]; exposure for 48 h
  Expression of mtrA, regX3 and mprA: inhibited

## NNC(=O)c1ccncc1 [INH, isoniazid, reference compound]
[2]
  LC3 puncta formation in infected macrophages: enhanced
